What was measured:
[1] = Stability study in 1% HCl (representative of gastric acid); format: physicochemical; settings: 37° C., approximately 21 hours, LC-MS
Description: (§1) Three novel compounds i.e., tert-butyl (2,5-dimethoxy-4-methylphenethyl)carbamate (Preparative Example 18), tert-butyl (2,5-dimethoxyphenethyl)carbamate (Preparative Example 7), and N-(3,4,5-Trimethoxyphenethyl-2-hydroxy-acetophenon imine (Preparative Example 17) were tested for their stability in 1% hydrochloric acid (HCl) as well as in phosphate buffers at pH 7.4 and pH 8.0. These conditions were selected to provide insights into the chemical stability of compounds at a pH values similar to conditions within the human body. The diluted hydrochloric acid (pH 1) represents gastric acid within the stomach whereas the potassium phosphate buffers at pH 7.4 and pH 8.0 simulate the conditions in the human blood and small intestine, respectively.
(§2) 4 mg of each test compound was diluted in either HCl solution or phosphate buffer (0.1 M) to give a solution of 1 mg/ml. Regarding the acidic testing with hydrochloric acid, 2 ml of aqueous test compound solutions were then added to 2 ml of 0.64 M HCl, yielding a final HCl concentration of 0.32 M (pH 0.5). Since all compounds tested, represent «free bases», a minimal amount of 100-200 microliters of dimethylsulfoxide (DMSO) has been added to avoid aggregation effects during testing. […] Concentrations of parent compound were analyzed at various timepoints using LC-MS. […]

[2] = molecular target: T1, human DAT (Homo sapiens, UniProt Q01959); assay: Uptake inhibition assay, DAT; format: cell-based
T1 construct: expressed in transfected cells
Description: (§3) Human embryonic kidney (HEK) 293 cells stably expressing human DAT, NET or SERT were maintained in humidified atmosphere (37° C., 5% CO2) in Dulbecco's Modified Eagle Medium (DMEM), supplemented with 10% heat-inactivated fetal calf serum (FCS), streptomycin (100 μg×100 mL^−1) and penicillin (100 U×100 mL^−1). Geneticin (50 μg×mL^−1) was used as selection antibiotic.
(§4) One day before the experiment, HEK293 cells expressing the respective transporters (DAT, NET or SERT) were seeded onto poly-D-lysine coated 96 well plates at a density of 30,000 cells per well in a final volume of 200 μL. For uptake experiments, the cell culture medium was replaced with […] Krebs-HEPES buffer (KHB; 25 mM HEPES, 120 mM NaCl, 5 mM KCl, 1.2 mM CaCl2, 1.2 mM MgSO4, and 5 mM D-glucose, pH 7.3). Then, the buffer was replaced with various concentrations of test compounds for 5 minutes; subsequent to that, 0.1 μM [^3H]5-HT (SERT), 0.1 μM [^3H]dopamine (DAT), or 0.05 μM [^3H]MPP^+ (NET) in KHB was added to yield a total volume of 50 μL in the well. For determination of non-specific uptake, paroxetine was used in case of SERT (3 μM), vanoxerine (also known as GBR12909) for DAT and NET (50 μM).
(§5) Uptake was terminated after 60 s (SERT) or 180 s (DAT, NET) by washing the cells with 200 μL ice-cold KHB. Subsequently, the cells were lysed with 200 μL Ultima Gold™ XR liquid scintillation cocktail, and the amount of tritium in the cells was measured with a Wallac 1450 MicroBeta® TriLux liquid scintillation counter. Monoamine uptake data were fitted by nonlinear regression, Vmax and Km values were calculated from Michaelis Menten's least-squares fit with GraphPad Prism (Prism 9.0.2, GraphPad Software, San Diego, CA, USA).
(§6) RT054 and RT056 were tested in both uptake inhibition and release assays, and the corresponding prodrug AM176 was tested in uptake inhibition assays. AM176 was tested either as the undecomposed prodrug or after treatment with 0.5% HCl at 37° C. for 24 hours in order to simulate digestion of the prodrug by gastric acid inside the body after peroral administration.

[3] = molecular target: T2, human NET (Homo sapiens, UniProt P23975); assay: Uptake inhibition assay, NET; format: cell-based
T2 construct: expressed in transfected cells
Description: as §3, §4, §5, §6

[4] = molecular target: T3, human SERT (Homo sapiens, UniProt P31645); assay: Uptake inhibition assay, SERT; format: cell-based
T3 construct: expressed in transfected cells
Description: as §3, §4, §5, §6

[5] = patients; cited from earlier work
[6] = Stability study in phosphate buffers pH 7.4 and pH 8.0; format: physicochemical; settings: phosphate buffer pH 7.4/pH 8.0, 37° C.
Description: as §1, §2

[7] = cited from earlier work
[8] = HEK293 cells stably expressing DAT, [3H]dopamine
[9] = HEK293 cells stably expressing NET, [3H]MPP+
[10] = HEK293 cells stably expressing SERT, [3H]5-HT

T1 sequence (Q01959 whole entry): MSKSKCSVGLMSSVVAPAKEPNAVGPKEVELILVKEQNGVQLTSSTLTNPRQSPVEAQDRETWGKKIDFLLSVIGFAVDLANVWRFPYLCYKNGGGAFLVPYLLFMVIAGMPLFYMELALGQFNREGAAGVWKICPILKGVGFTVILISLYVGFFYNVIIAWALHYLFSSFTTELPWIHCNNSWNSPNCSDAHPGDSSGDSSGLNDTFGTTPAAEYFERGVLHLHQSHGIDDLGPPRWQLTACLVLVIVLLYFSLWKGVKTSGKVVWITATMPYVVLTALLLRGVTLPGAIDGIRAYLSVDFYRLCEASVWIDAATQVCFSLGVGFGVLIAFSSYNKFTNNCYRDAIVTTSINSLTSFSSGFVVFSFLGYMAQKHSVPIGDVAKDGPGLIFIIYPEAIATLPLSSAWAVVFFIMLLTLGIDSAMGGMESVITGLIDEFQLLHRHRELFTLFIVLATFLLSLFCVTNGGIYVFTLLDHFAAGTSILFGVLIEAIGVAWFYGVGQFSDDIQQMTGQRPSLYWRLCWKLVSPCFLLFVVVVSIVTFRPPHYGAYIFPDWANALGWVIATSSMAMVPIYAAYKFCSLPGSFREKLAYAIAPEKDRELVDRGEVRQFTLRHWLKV
T2 sequence (P23975 whole entry): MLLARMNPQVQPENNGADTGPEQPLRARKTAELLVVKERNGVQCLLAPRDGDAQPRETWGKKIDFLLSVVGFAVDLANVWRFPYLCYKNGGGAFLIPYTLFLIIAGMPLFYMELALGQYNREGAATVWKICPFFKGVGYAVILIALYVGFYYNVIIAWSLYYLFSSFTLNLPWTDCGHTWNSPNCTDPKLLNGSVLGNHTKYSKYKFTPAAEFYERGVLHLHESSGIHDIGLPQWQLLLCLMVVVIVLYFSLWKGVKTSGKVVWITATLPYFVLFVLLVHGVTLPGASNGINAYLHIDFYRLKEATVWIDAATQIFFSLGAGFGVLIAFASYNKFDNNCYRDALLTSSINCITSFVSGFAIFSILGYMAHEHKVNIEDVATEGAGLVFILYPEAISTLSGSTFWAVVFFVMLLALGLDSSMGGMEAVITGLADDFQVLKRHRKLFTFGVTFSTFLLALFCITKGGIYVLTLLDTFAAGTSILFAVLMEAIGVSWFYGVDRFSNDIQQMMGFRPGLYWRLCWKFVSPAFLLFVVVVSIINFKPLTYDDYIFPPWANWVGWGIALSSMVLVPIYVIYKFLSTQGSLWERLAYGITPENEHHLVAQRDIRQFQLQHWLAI
T3 sequence (P31645 whole entry): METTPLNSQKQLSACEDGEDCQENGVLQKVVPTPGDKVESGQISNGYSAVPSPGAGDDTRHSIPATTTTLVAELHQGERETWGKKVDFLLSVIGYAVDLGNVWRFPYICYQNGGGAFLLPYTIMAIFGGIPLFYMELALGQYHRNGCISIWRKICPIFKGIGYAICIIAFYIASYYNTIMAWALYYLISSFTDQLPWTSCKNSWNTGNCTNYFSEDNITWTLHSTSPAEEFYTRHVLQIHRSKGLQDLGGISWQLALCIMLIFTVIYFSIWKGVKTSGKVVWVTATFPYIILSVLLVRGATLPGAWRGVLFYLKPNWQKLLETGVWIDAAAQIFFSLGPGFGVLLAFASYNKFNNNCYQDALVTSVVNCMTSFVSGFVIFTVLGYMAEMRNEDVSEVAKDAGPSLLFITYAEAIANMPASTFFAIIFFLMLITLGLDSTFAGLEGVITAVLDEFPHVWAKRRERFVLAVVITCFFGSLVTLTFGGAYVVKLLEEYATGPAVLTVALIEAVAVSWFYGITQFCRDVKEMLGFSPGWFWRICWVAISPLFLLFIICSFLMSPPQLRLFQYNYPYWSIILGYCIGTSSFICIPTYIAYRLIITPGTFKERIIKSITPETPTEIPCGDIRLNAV

SMILES: COc1cc(CC/N=C(\C)c2ccccc2O)cc(OC)c1OC
- Degradation in 1% HCl to the corresponding drug [1]: more retarded degradation behavior

SMILES: CC(Cc1ccc2c(c1)OCS2)N(C)C(=O)OC(C)(C)C (centres unmarked) [AM176, tert-butyl (1-benzo[d][1,3]oxathiole-6-yl)propan-2-yl(methyl)carbamate]
- IC50 ([2]; HCl-treated (0.5% HCl at 37° C. for 24 hours), HEK293 cells expressing DAT): 3.4 µM
- Interaction with DAT in uptake inhibition assay (in words) ([2]; after pre-treatment with HCl): inhibits substrate-uptake via all monoamine transporters in a competitive manner
- Interaction with DAT in uptake inhibition assay (in words) ([2]; without pre-treatment with HCl): no interaction
- IC50 ([3]; HCl-treated (0.5% HCl at 37° C. for 24 hours), HEK293 cells expressing NET): 9.2 µM
- Interaction with NET in uptake inhibition assay (in words) ([3]; after pre-treatment with HCl): inhibits substrate-uptake via all monoamine transporters in a competitive manner
- Interaction with NET in uptake inhibition assay (in words) ([3]; without pre-treatment with HCl): no interaction
- IC50 ([4]; HCl-treated (0.5% HCl at 37° C. for 24 hours), HEK293 cells expressing SERT): 18.3 µM
- Interaction with SERT in uptake inhibition assay (in words) ([4]; after pre-treatment with HCl): inhibits substrate-uptake via all monoamine transporters in a competitive manner
- Interaction with SERT in uptake inhibition assay (in words) ([4]; without pre-treatment with HCl): no interaction

SMILES: COc1cc(CCN)cc(OC)c1OC [Mescaline, mescaline]
- oral dose to cause the desired psychedelic state [5]: over 200 mg

SMILES: COc1ccc(OC)c(CCNC(=O)OC(C)(C)C)c1 [Preparative Example 7, tert.-butyl-(2,5-Dimethoxyphenethyl)carbamate]
- Degradation at neutral and basic conditions [6]: complete stability

SMILES: COc1cc(CCNC(=O)OC(C)(C)C)c(OC)cc1C [Preparative Example 18, t-butyl-(2,5-Dimethoxy-4-methylphenethyl)carbamate]
- Degradation at neutral and basic conditions [6]: complete stability

SMILES: CC(N)Cc1ccc2c(c1)OCS2 (centres unmarked) [RT054, Benzoxathiol-6-yl-propan-2-amine, reference compound]
- IC50 [2, 8]: 1.3 µM
- IC50 [3, 9]: 0.8 µM
- IC50 [4, 10]: 3.6 µM

SMILES: CNC(C)Cc1ccc2c(c1)OCS2 (centres unmarked) [RT056, Benzoxathiol-6-yl-N-methyl-propan-2-amine]
- IC50 [2, 8]: 0.9 µM
- IC50 [3, 9]: 1.8 µM
- IC50 [4, 10]: 4.5 µM

SMILES: NCCc1ccccc1 [phenethylamine (PEA), phenethylamine]
- half-life after oral consumption [7]: approximately 10 minutes
